Laboratory results reported in BindingDB's records for doi:10.1021/acs.jmedchem.9b01161 (Research Triangle Institute, 2019).

Assays:
Cannabinoid receptor 1 [1] = target: T1, Cannabinoid receptor 1 (Homo sapiens, UniProt P21554); test: Allosteric modulator activity at human CB1 receptor expressed in HEK293 cell membranes assessed as suppression of 100 nM CP55,940-induced [35S]GTPgammaS binding incubated for 60 mins by scintillation counting method
Cannabinoid receptor 1 [2] = target: T1, Cannabinoid receptor 1; test: Allosteric modulator activity at human CB1 receptor expressed in CHO-RD-HGA16 cells co-expressing Galpha16 assessed as suppression of 100 nM CP55,940-induced calcium mobilization pre-incubated for 15 mins by Calcium 5 dye based FLIPR assay

T1 sequence (P21554 whole entry): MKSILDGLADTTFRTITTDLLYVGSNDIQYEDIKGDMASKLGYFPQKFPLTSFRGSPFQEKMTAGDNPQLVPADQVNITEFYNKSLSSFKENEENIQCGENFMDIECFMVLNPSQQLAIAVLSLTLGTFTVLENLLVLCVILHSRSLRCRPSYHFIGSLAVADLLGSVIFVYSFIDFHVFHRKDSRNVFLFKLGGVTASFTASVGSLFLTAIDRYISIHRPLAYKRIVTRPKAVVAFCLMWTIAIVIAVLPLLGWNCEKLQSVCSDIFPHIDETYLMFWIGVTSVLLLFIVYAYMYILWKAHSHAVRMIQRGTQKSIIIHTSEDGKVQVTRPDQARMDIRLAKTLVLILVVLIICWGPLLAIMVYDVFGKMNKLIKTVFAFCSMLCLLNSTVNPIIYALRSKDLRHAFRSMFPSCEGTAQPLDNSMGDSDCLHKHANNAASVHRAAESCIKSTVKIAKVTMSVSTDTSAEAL

Row | SMILES | IC50 (Cannabinoid receptor 1 [1]) | IC50 (Cannabinoid receptor 1 [2])
1 | O=C(Nc1ccc(Cl)cc1)N[C@H]1C[C@H]1c1ccccc1 | > 10 µM | > 10 µM
2 | COc1ccc(-c2cccc(N3CCCC3)n2)cc1NC(=O)Nc1ccc(Cl)cc1 | > 10 µM | 
